Measurements reported in patent US8852876B2, “Label free biosensors and cells” (Corning Incorporated, priority 2008, dated 2014).

Experiments:
quiescent A431 cells [1] = assay: GPCR agonist-induced DMR and EGFR transactivation; format: cell-based, human
Experimental: Both A431 and CHO-K1 cells were grown in Dulbecco's modified Eagle's medium (DMEM) supplemented with 10% fetal calf serum, 100 μg/ml penicillin, and 100 μg/ml streptomycin. For cell culture, certain numbers of cells (2×10^5 to 1×10^6), either A431 or CHO-K1, were suspended in […] medium were placed in each well of a 96 well Corning Epic Biosensor microplate, and were cultured at 37° C. in air/5% CO2 for certain time until the cell density reached ˜90% and above (unless specified). The resulted cells were termed as “profilerating” cells. The “quiescent” cells were obtained by culturing the profilerating cells of desired confluencies with a medium containing no or little (˜0.1% fetal bovine serum (FBS)) for at least 16 hours.
During the assays, the cells in 100 μl medium were subject to two 25 μl HBSS buffer containing 20 mM HEPES, pH 7.4, each separated by at least 15 minutes before 50 μl stimulus-containing solution was applied. During all these steps, a parallel angular interrogation system was used to monitor the real time kinetics of cellular responses. For compound effect studies, a modified protocol was used which starts with 50 μl medium, and subject to sequential treatment: 25 μl HBSS buffer twice (each separated by at least 15 minutes), 50 μl compound solution and finally 50 μl stimulus-containing solution.

[2] = test system: endogenous GPCRs in A431 cells; assay: DMR optical biosensor profiling of GPCR agonists; format: cell-based, human; conditions: quiescent A431; first class = Gq-type, second = Gs-type, third = Gi-type, fourth = no significant DMR
Experimental: Human epidermoid carcinoma A431 cells (American Type Cell Culture) were grown in Dulbecco's modified Eagle's medium (DMEM) supplemented with 10% fetal bovine serum (FBS), 4.5 g/liter glucose, 2 mM glutamine, and antibiotics. ˜3-7.5×10^4 cells at passage 3 to 5 suspended in 200 μl the DMEM medium containing 10% FBS were placed in each well of a 96 well microplate. Similarly ˜1-2×10^4 cells in 50 μl the growth medium were placed in each well of a 384 well microplate. After cell seeding, the cells were cultured at 37° C. under air/5% CO2 until ˜95% confluency was reached (˜2-4 days).
A Corning® Epic™ angular interrogation system with transverse magnetic or p-polarized TM0 mode was used for all studies. Several extra actions were taken to minimize the unwanted effects. First, to minimize the bulk index changes when a compound solution is introduced, 1×HBSS buffer without any probenecid was used to dilute all the compounds, whereas the DMEM buffer only was used to starve the cells. Secondly, to facilitate the cell responses as well as to rapidly reach a steady state when the sensor plates having cells were placed in the system at room temperature, the cells were pre-starved with the DMEM buffer without any FBS for a prolonged period of time (typically 20±2 hours), and the quiescent cells were directly used for assays without any wash.
For kinetics measurements, the cultured cells (˜95% confluency) were starved for about 20 hours with DMEM alone at 37° C. under air/5% CO2. Afterwards, the sensor microplate containing cells was placed into the optical system, and the cell responses were recorded before and after addition of a solution at room temperature. […] All studies were carried out at room temperature with the lid of the microplate on except for a short period of time (˜seconds) when the solution was introduced, in order to minimize the effect of temperature fluctuation and evaporative cooling. The unit of the responses indicated herein was a change in pixel of the central position of the resonant band of each sensor as imaged by a CCD camera; 1 unit equals to ˜5.82×10^−4 refractive index changes, based on an experimental normalization protocol, which uses the concentration-dependent responses of both glycerol and dimethyl sulfoxide.
The panel of agonists were used individually to stimulate quiescent A431 cells. The dose-dependent and kinetic responses were recorded and analyzed. In a typical kinetic measurement, the angular shift of resonant lights of each sensor induced by an agonist is monitored in real time and plotted as a function of time. An increased signal (P-DMR) means an increase in the amount of bio-molecules within the sensing volume (˜120 nm); conversely, a decreased signal (N-DMR) means a decrease in the amount of bio-molecules within the sensing volume. The sensing volume, also known as penetration depth, is an intrinsic property of the coupled light within the waveguide film, which creates an evanescent wave extending into the cell layer and the medium.

[3] = test system: protease activated receptors PAR1 and PAR2; assay: Fluo-3 Ca2+ mobilization assay with PAR agonists; format: cell-based, human; conditions: for Concentration required to induce a maximal response: [Ca2+]i; for Effect of preceding stimulation on trypsin-induced [Ca2+]i elevation: 200 nM trypsin; for Maximal [Ca2+]i elevation / EC50: quiescent A431, Fluo-3; for EC50: read-out: EC50 of [Ca2+]i increase
Experimental: A431 at passage 3 to 5 were grown in Costar™ 96 well clear cell culture microplates until ˜95% confluency, washed twice and starved overnight with the DMEM only, washed with 1×HBSS (1× regular Hank's balanced salt solution, 20 mM HEPES buffer, pH 7.0) in the presence of 2.5 mM probenicid, and labeled in the same buffer containing 4 μM Fluo-3 for 1 hour at room temperature. The cells were then washed twice with buffer, maintained with 100 μl 1×HBSS containing 2.5 mM probenicid. The assay was initiated by transferring 50 μl PAR agonist solution to the cell plate, and calcium signal was recorded over 6 minutes with a 6 sec interval using HTS7000 BioAssay Reader (PerkinElmer Life Science, Boston, Mass.). The assays were carried out at room temperature in order to allow direct comparison with optical sensing data.

[4] = molecular target: T1, protease activated receptors PAR1 and PAR2 (Homo sapiens, UniProt P55085); format: cell-based
T1 construct: A431 cells which endogenously express PAR1 and PAR2; endogenous in cells; host or cells: A431
T1 sequence (P55085 26-397): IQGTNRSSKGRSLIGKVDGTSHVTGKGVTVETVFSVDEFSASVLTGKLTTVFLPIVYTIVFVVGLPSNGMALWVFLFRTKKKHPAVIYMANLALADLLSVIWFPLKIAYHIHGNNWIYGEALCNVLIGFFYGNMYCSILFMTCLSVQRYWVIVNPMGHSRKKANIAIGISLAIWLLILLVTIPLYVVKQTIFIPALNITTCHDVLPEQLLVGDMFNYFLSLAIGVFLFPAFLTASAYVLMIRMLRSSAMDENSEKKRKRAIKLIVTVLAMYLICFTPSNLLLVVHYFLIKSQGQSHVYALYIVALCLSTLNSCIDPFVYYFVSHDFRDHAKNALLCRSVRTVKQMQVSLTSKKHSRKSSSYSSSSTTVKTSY
In short: (§1)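 A431 cells at passage 3-5 grown in DMEM/10% FBS at 37° C, 5% CO2 to ~95% confluency (~2-4 days). Compounds and PAR agonists prepared in 1×HBSS to match the refractive index of the cell medium for dynamic mass redistribution (DMR) read-out.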

[5] = test system: protease activated receptors PAR1 and PAR2; format: cell-based, human
In short: as §1

quiescent A431 cells [6] = assay: mβCD-induced response (cholesterol effluxing) on LID sensor; format: cell-based, human; conditions: 20 nM EGF or 1000 nM H7; pretreated at least 40 minutes
Description: The disclosed methods can be used to assay cholesterol transport and to, for example, screen for molecules that effect cholesterol transport, such as effluxing and uptake. […] This method is based on the measurement in real time of the effect of compounds on cholesterol effluxing. Depletion of cholesterol content on cell surface or intracellular pool results in the disappearance of microvilli located in the cell surface, resulting in the flatness of cells adherent on a surface. The flatness of cells leads to a positive DMR phase with increased signal. Based on this biological effect, we use reagents, as markers, that can either extract cholesterol from the cell surface (e.g., methyl-beta-cyclodextrin (mβCD), or high density lipoproteins (HDLs)), or bind or sequester cholesterol on the cell surface (e.g., saponin at relatively low concentrations). The changes obtained using optical biosensors can be used as an indicator of modulators that interfere with the cholesterol effuxing. FIG. 27 provides a schematic of a cholesterol pathway.

A431 cells = assay: Cell adhesion and spreading on RWG biosensor; format: cell-based, human; conditions: 100 nM; 5% FBS; room temperature
Description: The adhesion and spreading of cells at surfaces were well studied using optical imaging techniques, as well as optical biosensors such as SPR and RWG. […] Subsequently, attached cells undergo morphological changes known as spreading—a process that the cells increase their area in contact with the surface. Both attachment and spreading are dependent on the nature of the surface and of the medium in which the cells are suspended. Since cell adhesion and spreading obviously leads to both vertical and horizontal mass redistribution within the sensing volume, we first characterized the adhesion and spreading of A431 cells in 5% FBS in the absence and presence of vincristine. Vincristine is a plant alkaoid that inhibits microtubule assembly by binding to tubulin.
We studied the adhesion and spreading of A431 cells in 5% FBS in the absence and presence of vincristine at room temperature (25° C.). […] Following the addition of cell solution, there is an immediate and rapid increased signal, which is probably resulted from three events: the increased bulk index from the addition of the cell solution, the immobilization of serum proteins onto the sensor surface, and the sedimentation of cells and subsequent contact of cells with the surface. Afterwards, a prolonged increased signal occurred, indicating the slow process of cell spreading. Ultimately a saturated level was reached. […]

[7] = test system: EGF-induced response of quiescent A431 cells; assay: Effect of compound pretreatment on EGF-induced DMR response; format: cell-based, human; conditions: read-out: IC50 for suppression of EGF-induced response (amplitude of N-DMR signal)
In short: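 A431 cells were made quiescent by ≥16 h culture in no or ~0.1% FBS medium. After two HBSS/20 mM HEPES pH 7.4 buffer additions ≥15 min apart, compound was added and then stimulus. Real-time dynamic mass redistribution was tracked by resonant waveguide biosensor with angular interrogation.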

[8] = molecular target: T2, protease activated receptors PAR1 and PAR2 (Homo sapiens, UniProt P25116); format: cell-based
T2 construct: A431 cells which endogenously express PAR1 and PAR2; endogenous in cells; host or cells: A431
T2 sequence (P25116 22-425): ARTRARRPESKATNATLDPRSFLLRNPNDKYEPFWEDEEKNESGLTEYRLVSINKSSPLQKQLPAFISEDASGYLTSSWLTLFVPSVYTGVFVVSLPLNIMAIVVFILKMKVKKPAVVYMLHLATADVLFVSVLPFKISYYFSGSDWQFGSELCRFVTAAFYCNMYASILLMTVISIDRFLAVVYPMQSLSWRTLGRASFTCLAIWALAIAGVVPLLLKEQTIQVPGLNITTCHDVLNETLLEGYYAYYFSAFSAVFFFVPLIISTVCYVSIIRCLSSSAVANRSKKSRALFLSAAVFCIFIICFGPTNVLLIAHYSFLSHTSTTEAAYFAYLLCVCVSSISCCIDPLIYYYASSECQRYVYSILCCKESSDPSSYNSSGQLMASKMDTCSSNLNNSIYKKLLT
In short: as §1

[9] = test system: actin filaments in A431 cells; assay: Texas Red-phalloidin fluorescence imaging; format: cell-based, human; conditions: 100 nM trypsin or 40 unit/ml thrombin; ~95% confluency
Experimental: Cells were grown on Corning® Epic™ 96 well biosensor microplates, starved for overnight with serum-free DMEM medium, chased with either trypsin or thrombin for certain time, fixed with 4% paraformaldehyde, permeabilized in phosphate-buffered saline (PBS) containing 0.2% Triton, and blocked with 1% bovine serum albumin (BSA). Afterwards, cells were incubated with 0.5 μM Texas Red-labeled phalloidin for 1 h at room temperature, and washed. After final washes and mounting, cells were examined with a 40× objective, equipped in a Zeiss Axioplan fluorescence microscope.

Clc1cccc(Cl)c1N=C1NCCN1 [clonidine]
GPCR agonist-induced DMR response curve (quiescent A431 cells [1]; bradykinin 100 nM, carbachol 10 μM, clonidine 1 μM): responses with almost identical features as those induced by low concentrations (2-8 nM) of EGF
Class of optical signature (DMR) induced by agonist [2]: did not exhibited any significant DMR signals

SLIGLR [SLIGLR-amide, PAR2-AP]
Concentration required to induce a maximal response [3]: 20 µM
Effect of preceding stimulation on trypsin-induced [Ca2+]i elevation ([3]; interval 6 min): significantly attenuated but not completely eliminates the trypsin-induced [Ca^2+]i elevation
Maximal [Ca2+]i elevation [3]: 64±3.7%
EC50 [3]: 2.5 ± 0.3 µM
DMR signal after preceding stimulation with thrombin [4]: induced the DMR signal similar to that obtained without the preceding stimulation
Effect of preceding stimulation on trypsin-induced DMR signal ([5]; interval about 1 hour): significantly suppresses but not completely eliminates the trypsin-induced DMR signal
Class of optical signature (DMR) induced by agonist [2]: first class of optical signatures

CC1CNCCN1S(=O)(=O)c1cccc2cnccc12 (stereo not drawn) [H7]
Effect of pretreatment on mβCD-induced response (quiescent A431 cells [6]): led to the suppression of the mβCD-induced response

CC[C@]1(O)C[C@H]2CN(CCc3c([nH]c4ccccc34)[C@@](C(=O)OC)(c3cc4c(cc3OC)N(C=O)[C@H]3[C@@](O)(C(=O)OC)[C@H](OC(C)=O)[C@]5(CC)C=CCN6CC[C@]43[C@@H]65)C2)C1 [vincristine]
Effect on cell adhesion and spreading signatures (A431 cells): suppressed not only both the initial and total responses, but also reduced the kinetics of cell spreading
Reduction of total change in incident angle vs absence of compound (A431 cells): about 20%

COc1cc2ncnc(Nc3cccc(Cl)c3)c2cc1OC [AG1478, tyrphostin AG1478]
Effect of pretreatment on bradykinin-induced response (quiescent A431 cells [1]; AG1478 10 μM): can only partially attenuate the response
Effect of pretreatment on carbachol- and clonidine-induced response (quiescent A431 cells [1]; AG1478 10 μM): totally abolished the N-DMR phase, and significantly reduced the kinetics of the P-DMR phase
IC50 [7]: ~0.194 µM

YFLLRNP [PAR1 specific partial agonist]
[Ca2+]i elevation by compound alone ([3]; concentrations up to 160 μM): did not induce any significantly elevation of [Ca^2+]i
[Ca2+]i elevation mediated by 200 nM trypsin after pretreatment ([3]; pretreatment with 80 μM, n=5): 48.3±4.5%
Effect of pretreatment on PAR2-AP GLIGKV-mediated DMR signal ([4]; SLIGKV-amide 20 μM): no obvious effect on the PAR2-AP GLIGKV-mediated DMR signal
DMR signal stimulated by compound alone [8]: only at high doses stimulated significant DMR signals
Effect of pretreatment on trypsin-mediated DMR signal ([5]; 100 or 200 nM trypsin, modulators 10 μM): only partially attenuated both SFFLR-amide and trypsin-mediated DMR
Effect of pretreatment on SFFLR-amide-mediated DMR ([5]; SFFLR-amide 20 μM, highest dose examined): only partially attenuated both SFFLR-amide and trypsin-mediated DMR

SLIGKV [SLIGKV-amide, PAR2-AP]
Concentration required to induce a maximal response [3]: 20 µM
Effect of preceding stimulation on trypsin-induced [Ca2+]i elevation ([3]; interval 6 min): significantly attenuated but not completely eliminates the trypsin-induced [Ca^2+]i elevation
Maximal [Ca2+]i elevation [3]: 52±6.3%
EC50 [3]: 3.8 ± 0.4 µM
[Ca2+]i elevation after preceding stimulation with thrombin ([3]; thrombin 40 unit/ml first, interval 6 min): 48.5±3.8%
DMR signal after preceding stimulation with thrombin [4]: induced the DMR signal similar to that obtained without the preceding stimulation
Effect of preceding stimulation on trypsin-induced DMR signal ([5]; interval about 1 hour): significantly suppresses but not completely eliminates the trypsin-induced DMR signal
Class of optical signature (DMR) induced by agonist [2]: first class of optical signatures

trypsin
Reorganization of actin filaments [9]: triggered significant cytoskeletal reorganization after about 10 min
Concentration required to induce a maximal response [3]: 0.4 µM
Maximal [Ca2+]i elevation [3]: 100±6.3%
EC50 [3]: 0.0457 ± 0.0058 µM
Effect of preceding stimulation on [Ca2+]i elevation by subsequent PAR agonists ([3]; then 40 unit/ml thrombin, 20 μM SFFLR-amide, GLIGKV-amide, GLIGLR-amide or 200 nM trypsin, interval 6 min): induced almost no [Ca^2+]i elevation
Maximal [Ca2+]i elevation relative to thrombin ([3]; trypsin vs thrombin): approximately 2 fold
Effect of preceding stimulation on DMR signal induced by PAR-APs ([5]; SFFLR-amide, GLIGKV-amide, GLIGLR-amide, interval about 1 hour): significantly suppressed the DMR signal induced by either of three PAR-APs
Effect of preceding stimulation on DMR signal induced by trypsin or thrombin ([5]; interval about 1 hour): completely eliminated the DMR signal induced by either trypsin (data not shown) or thrombin
Effect of pretreatment on DMR mediated by bradykinin ([5]; interval about 1 hour): little effect on the DMR mediated by bradykinin
Class of optical signature (DMR) induced by agonist [2]: first class of optical signatures
